Measured values as given in patent publication US20240246964A1 (Arbutus Biopharma Corporation, priority 2021, published 2024).

Experiments:
[1] = target: PD-L1 His protein / PD-1 Fc protein (Homo sapiens (Human), UniProt Q9NZQ7); assay: HTRF Assay (PD-1/PD-L1 interaction); format: binding; conditions: PD-L1 His 6 nM, PD-1 Fc 6 nM
human PD-L1 = human PD-L1 (Homo sapiens (Human), UniProt Q9NZQ7); assay: T cell activation luciferase reporter cell culture system (T Cell Activation Assay); format: cell-based; conditions: luciferase reporter assay; PD-L1 aAPC/CHO-K1 cells with PD-1 effector Jurkat T cells
Sequence of human PD-L1 (Q9NZQ7 19-290): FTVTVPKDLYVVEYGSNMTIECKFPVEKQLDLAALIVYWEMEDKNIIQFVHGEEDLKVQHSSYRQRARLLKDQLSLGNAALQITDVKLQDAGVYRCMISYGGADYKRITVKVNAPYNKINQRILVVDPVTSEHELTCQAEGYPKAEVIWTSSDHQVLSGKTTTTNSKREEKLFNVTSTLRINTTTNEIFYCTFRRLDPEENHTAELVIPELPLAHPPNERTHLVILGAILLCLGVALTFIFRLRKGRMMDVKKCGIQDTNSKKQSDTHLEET

Sequence of PD-L1 His protein / PD-1 Fc protein (Q9NZQ7 19-238): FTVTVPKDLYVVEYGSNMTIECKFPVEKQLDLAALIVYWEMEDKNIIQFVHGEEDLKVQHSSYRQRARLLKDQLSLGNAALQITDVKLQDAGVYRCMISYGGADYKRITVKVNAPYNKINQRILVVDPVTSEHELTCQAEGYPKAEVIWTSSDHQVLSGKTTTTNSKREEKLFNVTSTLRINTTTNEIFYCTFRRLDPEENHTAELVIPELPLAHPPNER

Compound	IC50 [1]	EC50 (human PD-L1)
COc1nc(-c2cccc(-c3ccnc(-c4ccc5c(c4)S(=O)(=O)CCN(C[C@@H]4CCC(=O)N4)C5)c3Cl)c2Cl)ccc1CNC[C@@H]1CCC(=O)N1 [Example 582, (S)-5-((((6-(2-Chloro-3-(3-chloro-2-(1,1-dioxido-4-(((S)-5-oxopyrrolidin-2-yl)methyl)-2,3,4,5-tetrahydrobenzo[f][1,4]thiazepin-8-yl)pyridin-4-yl)phenyl)-2-methoxypyridin-3-yl)methyl)amino)methyl)pyrrolidin-2-one]	1.58 nM	1040 nM
CCOc1cc(-c2nccc(-c3cccc(-c4ccc(CNC5CCN(C(C)=O)CC5)c(OC)n4)c3Cl)c2Cl)cn2nc(CN[C@H]3C[C@](C)(O)C3)nc12 [Example 584, 1-(4-(((6-(2-Chloro-3-(3-chloro-2-(8-ethoxy-2-((((1r,3r)-3-hydroxy-3-methylcyclobutyl)amino)methyl)-[1,2,4]triazolo[1,5-a]pyridin-6-yl)pyridin-4-yl)phenyl)-2-methoxypyridin-3-yl)methyl)amino)piperidin-1-yl)ethan-1-one]	2.21 nM	≥ 10000 nM
COc1cc(-c2nccc(-c3cccc(-c4ccc(CNCCCF)c(OC)n4)c3C(F)(F)F)c2Cl)ccc1CNCCCF [Example 587, N-((6-(3-(3-Chloro-2-(4-(((3-fluoropropyl)amino)methyl)-3-methoxyphenyl)pyridin-4-yl)-2-(trifluoromethyl)phenyl)-2-methoxypyridin-3-yl)methyl)-3-fluoropropan-1-amine]	160 nM	≥ 10000 nM
COc1cc(-c2nccc(-c3cccc(-c4ccc(CNC56CC(CO)(C5)C6)c(OC)n4)c3Cl)c2Cl)ccc1CNC12CC(CO)(C1)C2 [Example 591, (3-(((6-(2-chloro-3-(3-chloro-2-(4-(((3-(hydroxymethyl)bicyclo[1.1.1]pentan-1-yl)amino)methyl)-3-methoxyphenyl)pyridin-4-yl)phenyl)-2-methoxypyridin-3-yl)methyl)amino)bicyclo[1.1.1]pentan-1-yl)methanol]	24.5 nM	469 nM
COc1cc(-c2ncnc(-c3cccc(-c4ccc(CN[C@H]5C[C@H](O)C5)c(OC)n4)c3Cl)c2Cl)ccc1CN[C@H]1C[C@H](O)C1 [Example 593, (1r,3r)-3-(((6-(2-Chloro-3-(5-chloro-6-(4-((((1r,3r)-3-hydroxycyclobutyl)amino)methyl)-3-methoxyphenyl)pyrimidin-4-yl)phenyl)-2-methoxypyridin-3-yl)methyl)amino)cyclobutan-1-ol]	0.16 nM	104 nM
COc1nc(-c2cccc(-c3ccnc(-c4cc(OC)c5nc(CN[C@H]6CC[C@H](O)CC6)nn5c4)c3Cl)c2Cl)ccc1CNC1CCN(C(C)=O)CC1 [Example 595, 1-(4-(((6-(2-Chloro-3-(3-chloro-2-(2-((((1r,4r)-4-hydroxycyclohexyl)amino)methyl)-8-methoxy-[1,2,4]triazolo[1,5-a]pyridin-6-yl)pyridin-4-yl)phenyl)-2-methoxypyridin-3-yl)methyl)amino)piperidin-1-yl)ethan-1-one]	0.38 nM	211 nM
COc1cc(-c2nccc(-c3cccc(-c4ccc([C@H](C)NC5CCN(C(C)=O)CC5)c(OC)n4)c3Cl)c2Cl)ccc1[C@H](C)NC1CCN(C(C)=O)CC1 [Example 599, 1-(4-(((S)-1-(6-(3-(2-(4-((S)-1-((1-Acetylpiperidin-4-yl)amino)ethyl)-3-methoxyphenyl)-3-chloropyridin-4-yl)-2-chlorophenyl)-2-methoxypyridin-3-yl)ethyl)amino)piperidin-1-yl)ethan-1-one]	1.01 nM	≥ 10000 nM
COCC(=O)N1CCC(NCc2ccc(-c3nccc(-c4cccc(-c5ccc(CNC6CCN(C(=O)COC)CC6)c(OC)n5)c4C(F)(F)F)c3Cl)cc2OC)CC1 [Example 602, 1-(4-(((6-(3-(3-Chloro-2-(3-methoxy-4-(((1-(2-methoxyacetyl)piperidin-4-yl)amino)methyl)phenyl)pyridin-4-yl)-2-(trifluoromethyl)phenyl)-2-methoxypyridin-3-yl)methyl)amino)piperidin-1-yl)-2-methoxyethan-1-one]	41.3 nM	≥ 10000 nM
COc1cc(-c2nccc(-c3cccc(-c4ccc(CNC[C@@H]5CCC(=O)N5)c(OC)n4)c3C(F)(F)F)c2Cl)ccc1CNC[C@@H]1CCC(=O)N1 [Example 610, (S)-5-((((6-(3-(3-Chloro-2-(3-methoxy-4-(((((S)-5-oxopyrrolidin-2-yl)methyl)amino)methyl)phenyl)pyridin-4-yl)-2-(trifluoromethyl)phenyl)-2-methoxypyridin-3-yl)methyl)amino)methyl)pyrrolidin-2-one]	1.52 nM	2110 nM
COc1nc(-c2cccc(-c3ccnc(-c4cc(OC)c5nc(CN6CC(C)(O)C6)nn5c4)c3Cl)c2Cl)ccc1CNC1CCN(C(C)=O)CC1 [Example 637, 1-(4-(((6-(2-chloro-3-(3-chloro-2-(2-((3-hydroxy-3-methylazetidin-1-yl)methyl)-8-methoxy-[1,2,4]triazolo[1,5-a]pyridin-6-yl)pyridin-4-yl)phenyl)-2-methoxypyridin-3-yl)methyl)amino)piperidin-1-yl)ethan-1-one]	0.29 nM	116 nM
COc1nc(-c2cccc(-c3ccnc(-c4cc(OC)c5nc(CNC[C@@H](C)O)nn5c4)c3Cl)c2Cl)ccc1CNC1CCN(C(C)=O)CC1 [Example 638, (R)-1-(4-(((6-(2-Chloro-3-(3-chloro-2-(2-(((2-hydroxypropyl)amino)methyl)-8-methoxy-[1,2,4]triazolo[1,5-a]pyridin-6-yl)pyridin-4-yl)phenyl)-2-methoxypyridin-3-yl)methyl)amino)piperidin-1-yl)ethan-1-one]	0.2 nM	94.9 nM
COc1cc(-c2ncnc(-c3cccc(-c4ccc(CNCc5cnco5)c(OC)n4)c3Cl)c2Cl)ccc1CNCc1cnco1 [Example 643, 1-(6-(2-Chloro-3-(5-chloro-6-(3-methoxy-4-(((oxazol-5-ylmethyl)amino)methyl)phenyl)pyrimidin-4-yl)phenyl)-2-methoxypyridin-3-yl)-N-(oxazol-5-ylmethyl)methanamine]	4.17 nM	1530 nM
COc1cc(-c2nccc(-c3cccc(NC(=O)c4ccc(CNC5CCN(C(C)=O)CC5)cn4)c3C)c2Cl)ccc1CNC1CCN(C(C)=O)CC1 [Example 645, 5-(((1-Acetylpiperidin-4-yl)amino)methyl)-N-(3-(2-(4-(((1-acetylpiperidin-4-yl)amino)methyl)-3-methoxyphenyl)-3-chloropyridin-4-yl)-2-methylphenyl)picolinamide]	0.44 nM	1410 nM
COc1cc(-c2nccc(-c3cccc(NC(=O)c4ccc(CNC5CCOCC5)cn4)c3C)c2Cl)ccc1CNC1CCOCC1 [Example 646, N-(3-(3-Chloro-2-(3-methoxy-4-(((tetrahydro-2H-pyran-4-yl)amino)methyl)phenyl)pyridin-4-yl)-2-methylphenyl)-5-(((tetrahydro-2H-pyran-4-yl)amino)methyl)picolinamide]	0.48 nM	2710 nM
COc1cc(-c2nccc(-c3cccc(NC(=O)c4ccc(CNCCO)cn4)c3C)c2Cl)ccc1CNCCO [Example 648, N-(3-(3-Chloro-2-(4-(((2-hydroxyethyl)amino)methyl)-3-methoxyphenyl)pyridin-4-yl)-2-methylphenyl)-5-(((2-hydroxyethyl)amino)methyl)picolinamide]	0.05 nM	142 nM
COc1cc(-c2nccc(-c3cccc(NC(=O)c4ccc(CNC[C@H](C)O)cn4)c3C)c2Cl)ccc1CNC[C@H](C)O [Example 650, N-(3-(3-Chloro-2-(4-((((S)-2-hydroxypropyl)amino)methyl)-3-methoxyphenyl)pyridin-4-yl)-2-methylphenyl)-5-((((S)-2-hydroxypropyl)amino)methyl)picolinamide]	0.1 nM	144 nM
COc1cc(-c2nccc(-c3cccc(-c4ccc(CNC5CC6(C5)CN(C(C)=O)C6)c(OC)n4)c3C(F)(F)F)c2Cl)ccc1CNC1CC2(C1)CN(C(C)=O)C2 (stereo not drawn) [Example 651, 1-(6-(((6-(3-(2-(4-(((2-Acetyl-2-azaspiro[3.3]heptan-6-yl)amino)methyl)-3-methoxyphenyl)-3-chloropyridin-4-yl)-2-(trifluoromethyl)phenyl)-2-methoxypyridin-3-yl)methyl)amino)-2-azaspiro[3.3]heptan-2-yl)ethan-1-one]	4.06 nM	≥ 10000 nM
COc1cc(-c2nccc(-c3cccc(-c4ccc(CNC5CCOCC5)c(OC)n4)c3C#N)c2Cl)ccc1CNC1CCOCC1 [Example 652, 2-(3-Chloro-2-(3-methoxy-4-(((tetrahydro-2H-pyran-4-yl)amino)methyl)phenyl)pyridin-4-yl)-6-(6-methoxy-5-(((tetrahydro-2H-pyran-4-yl)amino)methyl)pyridin-2-yl)benzonitrile]	0.07 nM	227 nM
COc1cc(-c2nccc(-c3cccc(-c4ccc(CN5CCN(C(C)=O)CC5)c(OC)n4)c3Cl)c2Cl)ccc1CN1CCN(C(C)=O)CC1 [Example 655, 1-(4-((6-(3-(2-(4-((4-Acetylpiperazin-1-yl)methyl)-3-methoxyphenyl)-3-chloropyridin-4-yl)-2-chlorophenyl)-2-methoxypyridin-3-yl)methyl)piperazin-1-yl)ethan-1-one]	9.58 nM	≥ 10000 nM
COc1cc(-c2nccc(-c3cccc(NC(=O)c4cn(C)c(=O)n(C)c4=O)c3Cl)c2Cl)ccc1CNC1CCN(C(C)=O)CC1 [Example 656, N-(3-(2-(4-(((1-Acetylpiperidin-4-yl)amino)methyl)-3-methoxyphenyl)-3-chloropyridin-4-yl)-2-chlorophenyl)-1,3-dimethyl-2,4-dioxo-1,2,3,4-tetrahydropyrimidine-5-carboxamide]	0.16 nM	589 nM
COc1cc(-c2nccc(-c3cccc(NC(=O)c4cn(C)c(=O)n(C)c4=O)c3Cl)c2Cl)ccc1CNC[C@@H]1CCC(=O)N1 [Example 657, (S)—N-(2-Chloro-3-(3-chloro-2-(3-methoxy-4-((((5-oxopyrrolidin-2-yl)methyl)amino)methyl)phenyl)pyridin-4-yl)phenyl)-1,3-dimethyl-2,4-dioxo-1,2,3,4-tetrahydropyrimidine-5-carboxamide]	0.14 nM	33.3 nM
